In data set [1] the target is recombinant p70 S6 kinase (S6K1) (Homo sapiens, UniProt P23443). The experiment in a line: In vitro p70 S6 kinase assay (ADP-Glo Kinase assay system). Conditions: 30 min pre-incubation, ATP 10 μM, 1 hr, read-out: IC50, inhibition of recombinant S6K1 activity. The data set is classed as biochemical. As to the method: Leflunomide and A77 1726 diluted at the final concentrations as indicated were pre-mixed with S6K1 for 30 min, followed by the addition of peptide substrate of S6K1 and incubation for 1 hr. S6K1 activity was measured by using a ADP-Glo™ system. The experiment was repeated with similar results. The data represents the mean±standard deviation from one experiment in triplicate.
The ability of lefiunomide and A77 1726 to inhibit p70 S6 kinase assay was conducted by using an ADP-Glo™ Kinase assay system (Promega Corporation, Madison, Wis.). Briefly, A77 1726 or leflunomide diluted in the kinase buffer was mixed with recombinant p70 S6 kinase (100 ng/reaction) and incubated at room temperature for 30 min. Peptide substrate of p70 S6 kinase (5 μg/reaction) and ATP (10 μM, final concentration) was added, with a total final volume of 25 μl. After incubation for 1 hr, ADP-Glo™ reagent (25 μl) was added to each reaction. After incubation for 40 min, kinase detection substrate (luciferin) (50 μl/reaction) was added. After incubation fix 30 min, luciferase activity was measured by reading in a luminescence plate reader. The experiment was conducted in triplicate and repeated once with similar results. The data from one experiment were presented as mean±standard deviation.
On the technique in general: ADP-Glo turns the ADP formed in a reaction into a luminescent signal.

Data set [2] relates to ERK1/2^T202/Y204 and MEK1/2^S217/S221 phosphorylation. The data set is described as follows: Western blot of MAP kinase pathway phosphorylation in A375 cells. The data set is classed as cell-based. To be noted: A375 cells starved in 0.5% FBS; A77 1726 or leflunomide at indicated concentrations, 2 hr. As for the experimental part:
(§1) A375 cells seeded in a 6-well plate were starved in DMEM medium containing 0.5% FBS for 2 hr and treated with the indicated concentration of A77 1726 or PLX 4720 (1 μM) for another 2 hr (A) or treated with A77 1726 (100 μM) for the indicated time (B & C). Cells were harvested and analyzed for protein phosphorylation by specific antibodies as indicated. Protein loading was monitored by stripping membrane and re-probing with antibodies against non-phosphorylated proteins. […] A375 cells seeded in a 6-well plate were starved in DMEM medium containing 05% FBS for 2 hr and treated with the indicated concentration of A77 1726 in the absence or presence of uridine (200 μM). Phosphorylated and total proteins were analyzed by Western blot as described above.
(§2) A375 cells seeded in 6-well plates were starved in DMEM medium containing 0.5% FBS for 2 hr and then pre-treated with vehicle (0.1% dimethyl sulfoxide), LY294002 (10 μM) (A), PPP (1 μM) (B), or the inhibitors of the MAP kinase pathway (PLX4720, 1 μM; U0126, 10 μM; PD98059, 10 μM) (C) for 1 hr. Cells were then treated with A77 1726 (100 μM) or rapamycin (20 nM) as indicated for 2 hr. Cells were harvested and analyzed for protein phosphorylation by specific antibodies as indicated. Protein loading was monitored by stripping membrane and re-probing with antibodies against non-phosphorylated proteins.
(§3) Cells grown in 6-well plates were harvested and lysed in NP-40 lysis buffer (50 mM Tris-HCI (pH 8.0), 150 mM NaCl, 1% NP-40, 5 mM EDTA, 10 μg/ml aprotinin, 10 μg/ml leupeptin, and 1 mM phenylmethylsulfonyl fluoride). After incubation on ice for 30 min, the cell lysates were prepared by spinning down at 4° C., 15,000 rpm for 15 min. After electrophoresis and transfer to Immobolin membrane, proteins of interest were probed with their specific antibodies, followed by horseradish peroxidase-conjugated goat anti-rabbit IgG and SuperSignal Western Pico enhanced chemiluminoscence substrate (Pierce Chemical Co., Rockford, Ill.).
(§4) The PI-3 and MAP kinase pathways play an important role in cell proliferation, differentiation, and cell cycle progress. Multiple genes in these two pathways are frequently mutated and have a commanding role in driving tumorigenesis and tumor cell proliferation (2; 3). […] Here we tested whether A77 1726 affected the activation of MAP and PI-3 kinase pathways. A375 cells grown in 6-well plates were starved in the media containing 0.5% FBS for 2 hr and then treated with the indicated concentration of A77 1726. […] We next explored the effect of A77 1726 in phosphorylation of the molecules in the PI-3 kinase pathway.
On the technique in general: Immunoblotting shows a protein as a band on a membrane.

Data set [3] relates to AKT^S473 and S6K1^T389 phosphorylation. The experiment in a line: Western blot of PI-3 kinase pathway phosphorylation in A375 cells. The data set is classed as cell-based. To be noted: A375 cells, dose-dependent. As for the experimental part: as §1, §2, §3, §4
Data set [4] deals with BT-20 cells. The experiment in a line: Western blot of protein phosphorylation in BT-20 cells. It counts as cell-based. As for the experimental part:
(A) A77 1726 induces MAP kinase activation in A375 cells cultured in 10% fetal bovine serum. A375 cells were seeded in a 6-well plate overnight and then stimulated with various concentrations of A77 1726 or PLX 4720 (1 μM) for 2 hr. Cells were harvested and analyzed for MAP kinase activation by anti-phospho-ERK1/2 antibody. The membrane was stripped and re-probed with anti-ERK1/2 antibody. (B) Lack of the feedback activation of the MAP and PI-3 kinase pathways in BT-20 cells. BT20 cells seeded in 6-well plates were starved in DMEM medium containing 05% EBS for 2 hr and treated with A77 1726 (0, 50 or 100 μM), Cells were harvested and analyzed for protein phosphorylation by specific antibodies as indicated. Protein loading was monitored by stripping membrane and re-probing with antibodies against non-phosphorylated proteins. (C) Strong feedback activation of the PI-3 kinase pathway and weak feedback activation of the MAP kinase pathway in MCF-7 cells by A77 1726 and rapamycin. […] Cells were harvested and analyzed for protein phosphorylation with the indicated antibodies. […] Cells were harvested and analyzed for protein phosphorylation by specific antibodies as indicated. Protein loading was monitored by stripping membrane and re-probing with antibodies against nonphosphorylated proteins. […]

The subject of data set [5] is cyclin D1 expression. The experiment in a line: Cyclin D1 expression in A375 cells. The data set is classed as cell-based. Also on record: dose or concentration left out as unconfirmed. Conditions: A375 cells, 24, 48 and 72 hours; time-dependent. As for the experimental part:
FIG. 13 illustrates inhibition of […]) expression by A 77 1726.
S6K 1 has been implicated in playing an important role in regulating expression of cyclin D1. Cyclin D1 expression was tested in the presence of A 77 1726. A375 cells were treated with […] A 77 1726 for 0, 24, 48 and 72 hours.

The conditions of data set [6]: rheumatoid arthritis patients treated with leflunomide 20 mg/day; cited from earlier work.

Entries after “also recorded” stand apart in the source; their conditions may differ.

Sequence of recombinant p70 S6 kinase (S6K1) (P23443 whole entry): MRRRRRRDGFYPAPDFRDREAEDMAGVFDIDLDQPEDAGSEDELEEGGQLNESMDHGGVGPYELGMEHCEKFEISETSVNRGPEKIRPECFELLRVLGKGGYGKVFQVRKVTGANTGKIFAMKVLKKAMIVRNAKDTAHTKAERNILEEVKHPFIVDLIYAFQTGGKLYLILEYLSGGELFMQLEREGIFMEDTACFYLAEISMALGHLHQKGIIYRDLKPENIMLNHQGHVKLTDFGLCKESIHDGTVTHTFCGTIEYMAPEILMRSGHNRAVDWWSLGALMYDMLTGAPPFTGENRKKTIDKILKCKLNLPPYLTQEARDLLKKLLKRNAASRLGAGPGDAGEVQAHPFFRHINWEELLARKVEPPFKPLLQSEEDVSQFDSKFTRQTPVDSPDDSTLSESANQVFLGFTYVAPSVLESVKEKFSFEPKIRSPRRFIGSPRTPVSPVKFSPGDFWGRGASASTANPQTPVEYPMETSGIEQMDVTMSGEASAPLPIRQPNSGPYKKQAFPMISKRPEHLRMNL

The IC50 is the concentration that inhibits the measured activity by half. In the case of `C/C(O)=C(\C#N)C(=O)Nc1ccc(C(F)(F)F)cc1` [A77 1726], in data set [1], the concentration for half-maximal inhibition (IC50) is roughly 80 µM. Moreover, in data set [2], the “effect on ERK1/2 and MEK phosphorylation” value is “rapidly and potently induced; also recorded: strongly induced”. Besides, in data set [3], the “effect on AKT^S473 and S6K1^T389 phosphorylation” value was “strongly induced”. For the same compound, in data set [4], the “effect on ERK phosphorylation” value is given as “had no effect” and the “effect on S6^S235/236 phosphorylation” value is recorded as “Inhibition”. Moreover, in data set [5], the “effect on cyclin D1 expression” value is on record as “inhibited”. Also, the “plasma concentration of A77 1726” value in data set [6] was no more than 200 µM.

These data come from patent US20140121235A1, “Method for Treating S6K-Overexpressing Cancers” (Rush University Medical Center, priority 2012, published 2014).
